The values that follow come from US5925639A, “Keto amide derivatives useful as farnesyl protein transferase inhibitors” (Schering Corporation, priority 1997, dated 1999).

In assay [1] the target is farnesyl protein transferase (Homo sapiens, UniProt P49354+P49356). As to the kind of experiment: FPT IC50 (inhibition of farnesyl protein transferase, in vitro enzyme assay). The format is biochemical. The method, then: (§1) FPT IC50 (inhibition of farnesyl protein transferase, in vitro enzyme assay), COS Cell IC50 (Cell-Based Assay), GGPT IC50 (inhibition of geranylgeranyl protein transferase, in vitro enzyme assay), Cell Mat Assay, and anti-tumor activity (in vivo anti-tumor studies) are determined by the assay procedures described in WO 95/10516.

The test system of another assay is COS Cell. As to the kind of experiment: COS Cell IC50 (Cell-Based Assay). The method, then: as §1

The term IC50 denotes the concentration that gives 50% inhibition.

In assay [1], `CC(CCC(=O)N1CCC([C@H]2c3ncc(Br)cc3CCc3cc(Cl)cc(Br)c32)CC1)=NNC(=O)C(N)=O` [Example 13] registered an IC50 of 6.9 nM.

As to `O=C(/C(=N\O)c1ccccc1)N1CCC([C@H]2c3ncc(Br)cc3CCc3cc(Cl)cc(Br)c32)CC1` [Example 9], the IC50 in assay [1] was above 150 nM.

Compound `O=C(CCC(=O)N1CCC([C@H]2c3ncc(Br)cc3CCc3cc(Cl)cc(Br)c32)CC1)c1ccccc1` [Example 1] registered an IC50 in assay [1] of 21 nM.

Regarding `C/C(CCC(=O)N1CCC([C@H]2c3ncc(Br)cc3CCc3cc(Cl)cc(Br)c32)CC1)=N\O` [Example 8], the figures for the half-maximal inhibitory concentration (IC50) (in the assay on COS Cell; in assay [1]) were 52 nM and 4.9 nM, respectively.

For the compound `CC(CCC(=O)N1CCC([C@H]2c3ncc(Br)cc3CCc3cc(Cl)cc(Br)c32)CC1)=NNC(N)=O` [Example 12], the IC50 in assay [1] came to 9.7 nM.

In assay [1], `O=C(C(=O)N1CCC([C@H]2c3ncc(Br)cc3CCc3cc(Cl)cc(Br)c32)CC1)c1ccccc1` [Example 2] had a half-inhibitory concentration (IC50) of 65 nM.

For the compound `CC(=O)CCCC(=O)N1CCC([C@H]2c3ncc(Br)cc3CCc3cc(Cl)cc(Br)c32)CC1` [Example 4], the IC50 is 10 nM in the assay with COS Cell and 7.6 nM in assay [1].

For `CC(=O)CCC(=O)N1CCC([C@H]2c3ncc(Br)cc3CCc3cc(Cl)cc(Br)c32)CC1` [Example 3], the IC50 in the assay on COS Cell came out at 54 nM; in assay [1] it was 3.4 nM.

`CC(=O)C(=O)N1CCC([C@H]2c3ncc(Br)cc3CCc3cc(Cl)cc(Br)c32)CC1` [Example 6] returned an IC50 in assay [1] of 46 nM. This counts as double-digit nanomolar.

Turning to `CO/N=C(\CCC(=O)N1CCC([C@H]2c3ncc(Br)cc3CCc3cc(Cl)cc(Br)c32)CC1)c1ccccc1` [Example 11], the IC50 in assay [1] came to 88 nM.

In turn, `O=C(CC/C(=N\O)c1ccccc1)N1CCC([C@H]2c3ncc(Br)cc3CCc3cc(Cl)cc(Br)c32)CC1` [Example 10] returned a half-inhibitory concentration (IC50) in assay [1] of 4.7 nM. Compared with the last compound, the IC50 is about 19-fold lower.

For `CC(=O)CC(=O)CCC(=O)N1CCC([C@H]2c3ncc(Br)cc3CCc3cc(Cl)cc(Br)c32)CC1` [Example 5], the IC50 in the assay on COS Cell is 175 nM; in assay [1], 9.2 nM.

For the compound `C/C(CCC(=O)N1CCC([C@H]2c3ncc(Br)cc3CCc3cc(Cl)cc(Br)c32)CC1)=N/O` [Example 7], in assay [1], the half-maximal inhibitory concentration (IC50) worked out at 11 nM. In other words, the double-digit nanomolar range.
